Values after ≈ are worked out from the molar mass of the structure shown. Like-named read-outs stand apart in the source and are kept apart here. Bridge positions count the residues as written; N and C are the ends. Square brackets hold non-standard residues; d marks the D form. Peptide text beside a SMILES is read from it. * marks the point of attachment. X1 = CC[C@H](C)CCCCC(=O)*; Dab = NCC[C@H](N)C(=O)O
How the values were obtained:
Type in all cases: cell-based, Klebsiella pneumoniae
K. pneumoniae IMT40061 [1] = assay: microbe, parasite or virus in culture
Protocol: (§1) Three different strains of K. pneumoniae were investigated in this study which were originally isolated from a human, a pig and a dog (Table 2) and characterized in previous studies ([Krieger et al., 2021]; [Krieger et al., 2022]). Minimum inhibitory concentration (MIC) values were determined according to EUCAST guidelines by microdilution test and are shown in Supplementary Table S1.
(§2) Table S1 Minimum inhibitory concentration (MIC) values of the three K. pneumoniae strains,
(§3) determined according to EUCAST guidelines by microdilution test.
(§4) MIC [µg/mL] of indicated antibiotics

K. pneumoniae 17349 = assay: microbe, parasite or virus in culture
Protocol: as §1, §2, §3, §4

[2] = test system: K. pneumoniae 42KC-108224-1; assay: microbe, parasite or virus in culture
Protocol: as §1, §2, §3, §4

K. pneumoniae IMT40061 [3] = assay: fluorescence assay on mature biofilms (SYTO 9 / propidium iodide); settings: 24 h treatment of mature biofilm; at very high concentrations
Protocol: (§5) The proportion of living and dead bacteria was determined using the fluorescence assay FilmTracer™ LIVE/DEAD biofilm viability kit (L10316, Life Technologies GmbH, Darmstadt, Germany). A bacterial count of 2 × 10^7 CFU/mL was inoculated in 50% BHI broth, 100 μL were added to a 96-well plate in duplicate and plates were incubated for 22 h at 37°C. Wells containing only BHI broth were used as blank. After incubation, the supernatant was discarded and plates were washed three times with sterile PBS. […] After incubation for 24 h at 37°C and washing three times with sterile PBS, 50 μL filter-sterilized water containing 0.15 μL each of SYTO™ 9 stain and propidium iodide stain was added to each well. Plates were incubated for 20 min at room temperature in the dark. The staining solution was discarded and the plates were washed three times with sterile PBS. The fluorescence intensity of the SYTO™ 9 stain (λex = 470 nm, λem = 500 nm) and the propidium iodide stain (λex = 490 nm, λem = 635 nm) were measured on a BioTek Synergy H1 microplate reader and corrected for the blank values. The percentage of fluorescence intensity was calculated based on the negative control. The SYTO™ 9/propidium iodide ratio was calculated. The experiment was conducted at least three times.

[4] = test system: K. pneumoniae 42KC-108224-1; assay: as above; settings: 64 μg/mL in PBS, 24 h on 22 h-old biofilm; mean, n ≥ 3
Protocol: as §5

[5] = Klebsiella pneumoniae, IMT40061, EUCAST guidelines, microdilution test, read-out: MIC
[6] = Klebsiella pneumoniae, 17349, EUCAST guidelines, microdilution test, read-out: MIC
[7] = Klebsiella pneumoniae, 42KC1082241, EUCAST guidelines, microdilution test, read-out: MIC
[8] = Klebsiella pneumoniae, 42KC1082241
[9] = EUCAST guidelines, microdilution test

Structure (SMILES) | MIC (K. pneumoniae IMT40061 [1]; [5]) | MIC (K. pneumoniae 17349; [6]) | MIC [2, 7] | other results
NCC[C@H](O)C(=O)N[C@@H]1C[C@H](N)[C@@H](O[C@H]2O[C@H](CN)[C@@H](O)[C@H](O)[C@H]2O)[C@H](O)[C@H]1O[C@H]1O[C@H](CO)[C@@H](O)[C@H](N)[C@H]1O [Amikacin] | 4 µg/mL (≈ 6.83 µM) | < 0.5 µg/mL | < 0.5 µg/mL | 
CC1(C)S[C@@H]2[C@H](NC(=O)[C@H](N)c3ccccc3)C(=O)N2[C@H]1C(=O)O [Ampicillin] | > 32 µg/mL | 16 µg/mL (≈ 45.8 µM) | > 32 µg/mL | 
C[C@H]1[C@H](NC(=O)/C(=N\OC(C)(C)C(=O)O)c2csc(N)n2)C(=O)N1S(=O)(=O)O [Aztreonam] | > 16 µg/mL | < 0.25 µg/mL | < 0.25 µg/mL | 
CO/N=C(\C(=O)N[C@@H]1C(=O)N2C(C(=O)O)=C(COC(C)=O)CS[C@H]12)c1csc(N)n1 [Cefotaxime] | > 8 µg/mL | < 0.0625 µg/mL | < 0.0625 µg/mL | 
CC(C)(O/N=C(\C(=O)N[C@@H]1C(=O)N2C(C(=O)[O-])=C(C[n+]3ccccc3)CS[C@H]12)c1csc(N)n1)C(=O)O [Ceftazidime] | > 32 µg/mL | < 0.25 µg/mL | < 0.25 µg/mL | 
CO/N=C(\C(=O)N[C@@H]1C(=O)N2C(C(=O)O)=C(COC(N)=O)CS[C@H]12)c1ccco1 [Cefuroxime] | > 32 µg/mL | 1 µg/mL (≈ 2.36 µM) | 2 µg/mL (≈ 4.71 µM) | 
O=C(O)c1cn(C2CC2)c2cc(N3CCNCC3)c(F)cc2c1=O [Ciprofloxacin] | > 4 µg/mL |  |  | MIC (K. pneumoniae 17349; Klebsiella pneumoniae, 17349): < 0.0312 µg/mL; MIC [2, 8]: 0.0625 µg/mL (≈ 0.189 µM)
CC[C@H](C)CCCCC(=O)N[C@@H](CCN)C(=O)N[C@H](C(=O)N[C@@H](CCN)C(=O)N[C@H]1CCNC(=O)[C@H]([C@@H](C)O)NC(=O)[C@H](CCN)NC(=O)[C@H](CCN)NC(=O)[C@H](CC(C)C)NC(=O)[C@@H](CC(C)C)NC(=O)[C@H](CCN)NC1=O)[C@@H](C)O [Colistin] (X1-[Dab]T[Dab][Dab][Dab][dL]L[Dab][Dab]T; lactam 4-C (inferred); N-terminus assumed) |  |  |  | MIC (K. pneumoniae IMT40061 [1]; [9]): < 0.0625 µg/mL; MIC (K. pneumoniae 17349; [9]): 0.25 µg/mL (≈ 0.214 µM); MIC [2, 9]: 0.25 µg/mL (≈ 0.214 µM)
C[C@H]1c2cccc(O)c2C(=O)C2=C(O)[C@]3(O)C(=O)C(C(N)=O)=C(O)[C@@H](N(C)C)[C@@H]3[C@@H](O)[C@@H]21 [Doxycycline] | 4 µg/mL (≈ 9 µM) | 0.5 µg/mL (≈ 1.13 µM) | 1 µg/mL (≈ 2.25 µM) | 
CC[C@H]1OC(=O)[C@H](C)[C@@H](O[C@H]2C[C@@](C)(OC)[C@@H](O)[C@H](C)O2)[C@H](C)[C@@H](O[C@@H]2O[C@H](C)C[C@H](N(C)C)[C@H]2O)[C@](C)(O)C[C@@H](C)C(=O)[C@H](C)[C@@H](O)[C@]1(C)O [Erythromycin] |  |  |  | living biofilm mass (SYTO™ 9) (K. pneumoniae IMT40061 [3]): 69%; fluorescence intensity of propidium iodide in percent (dead cells) [4]: 64%
CNC(C)C1CCC(N)C(OC2C(N)CC(N)C(OC3OCC(C)(O)C(NC)C3O)C2O)O1 (centres unmarked) [Gentamicin] | 0.5 µg/mL (≈ 1.05 µM) | 0.25 µg/mL (≈ 0.523 µM) | < 0.125 µg/mL | 
C[C@@H](O)[C@H]1C(=O)N2C(C(=O)O)=C(SCCN=CN)C[C@H]12 [Imipenem] |  |  |  | MIC (K. pneumoniae IMT40061 [1]; Klebsiella pneumoniae, IMT40061): < 0.125 µg/mL; MIC (K. pneumoniae 17349; Klebsiella pneumoniae, 17349): < 0.125 µg/mL; MIC [2, 8]: < 0.125 µg/mL
